The values below come from paper PMC7180638, “Synthesis of Pyrrolidine Monocyclic Analogues of Pochonicine and Its Stereoisomers: Pursuit of Simplified Structures and Potent β-N-Acetylhexosaminidase Inhibition” (Molecules, 2020).

Structures can show the parent of a compound that is named as a salt. Where two headings read alike, the source gives them in different places. A value given as a limit tells only on which side of the number the result lay.

Common to all, as to type: biochemical
The target in assay [1] is β-N-Acetylhexosaminidase (Bovine liver). Kind of assay: β-N-Acetylhexosaminidase (bovine liver) inhibition. The settings on record: for IC50: β-N-Acetylhexosaminidase (β-GlcNAcase). Here is the method:
(§1) With rat intestinal maltase as an exception, other enzymes were purchased from Sigma-Aldrich Chemical Co. (St. Louis, MO, USA). Brush border membranes prepared from rat small intestine according to the method of Kessler et al. were assayed at pH 6.8 for rat intestinal maltase using maltose. The released D-glucose was determined colorimetrically using the Glucose CII-test Wako (Wako Pure Chemical Ind.; Osaka, Japan). Other glycosidase activities were determined using an appropriate p-nitrophenyl glycoside as substrate in a buffer solution at the optimal pH value of each enzyme. The reaction was stopped by adding 400 mM Na2CO3. The released p-nitrophenol was measured spectrometrically at 400 nm.

The target of assay [2] is T1, α-L-Fucosidase (Bovine kidney) (Bos taurus, UniProt Q2KIM0).
T1 construct: purchased Sigma-Aldrich Chemical Co; host or cells: bovine kidney
T1 sequence (Q2KIM0 23-468): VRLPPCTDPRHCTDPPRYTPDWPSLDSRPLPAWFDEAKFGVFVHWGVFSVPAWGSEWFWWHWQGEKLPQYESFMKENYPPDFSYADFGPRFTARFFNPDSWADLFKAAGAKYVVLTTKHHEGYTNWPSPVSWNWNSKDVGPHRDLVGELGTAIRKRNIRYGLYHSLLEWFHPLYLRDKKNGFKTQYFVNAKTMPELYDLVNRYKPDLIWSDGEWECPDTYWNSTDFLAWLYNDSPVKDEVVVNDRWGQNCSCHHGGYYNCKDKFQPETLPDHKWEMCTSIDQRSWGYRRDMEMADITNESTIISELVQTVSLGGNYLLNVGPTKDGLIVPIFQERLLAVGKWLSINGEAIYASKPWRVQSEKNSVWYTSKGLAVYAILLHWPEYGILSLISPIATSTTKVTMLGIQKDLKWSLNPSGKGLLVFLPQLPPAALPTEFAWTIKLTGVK
Kind of assay: α-L-Fucosidase (bovine kidney) inhibition. The protocol:
as §1

Assay [3] concerns the target T2, α-Galactosidase (Coffee beans) (Coffea arabica, UniProt Q42656).
T2 construct: purchased Sigma-Aldrich Chemical Co
Kind of assay: α-Galactosidase (coffee beans) inhibition. Here is the method:
as §1

The target in a further assay is Rat intestinal maltase. Kind of assay: Rat intestinal maltase inhibition. The settings on record: α-Glucosidase. The protocol: as §1
Assay [4] deals with T3, α-N-Acetylgalactosaminidase (Chicken liver) (Gallus gallus, UniProt Q90744).
T3 construct: purchased Sigma-Aldrich Chemical Co; host or cells: chicken liver
T3 sequence (Q90744 1-405): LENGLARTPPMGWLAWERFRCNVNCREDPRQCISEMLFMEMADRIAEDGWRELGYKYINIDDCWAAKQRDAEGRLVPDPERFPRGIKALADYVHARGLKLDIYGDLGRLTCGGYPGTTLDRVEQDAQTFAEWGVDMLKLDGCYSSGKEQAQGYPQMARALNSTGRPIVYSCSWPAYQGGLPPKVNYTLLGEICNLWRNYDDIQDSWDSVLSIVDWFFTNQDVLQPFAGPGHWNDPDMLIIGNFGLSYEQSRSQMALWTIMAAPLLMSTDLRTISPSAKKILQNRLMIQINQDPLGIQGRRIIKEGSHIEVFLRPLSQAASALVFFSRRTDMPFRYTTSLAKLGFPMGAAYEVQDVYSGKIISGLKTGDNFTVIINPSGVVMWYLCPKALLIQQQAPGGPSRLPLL
In words: α-N-Acetylgalactosaminidase (chicken liver) inhibition. The protocol:
as §1

In assay [5] the target is T4, β-Glucuronidase (Bovine liver) (Bos taurus, UniProt A3KMY8).
T4 construct: purchased Sigma-Aldrich Chemical Co; host or cells: bovine liver
T4 sequence (A3KMY8 1-652): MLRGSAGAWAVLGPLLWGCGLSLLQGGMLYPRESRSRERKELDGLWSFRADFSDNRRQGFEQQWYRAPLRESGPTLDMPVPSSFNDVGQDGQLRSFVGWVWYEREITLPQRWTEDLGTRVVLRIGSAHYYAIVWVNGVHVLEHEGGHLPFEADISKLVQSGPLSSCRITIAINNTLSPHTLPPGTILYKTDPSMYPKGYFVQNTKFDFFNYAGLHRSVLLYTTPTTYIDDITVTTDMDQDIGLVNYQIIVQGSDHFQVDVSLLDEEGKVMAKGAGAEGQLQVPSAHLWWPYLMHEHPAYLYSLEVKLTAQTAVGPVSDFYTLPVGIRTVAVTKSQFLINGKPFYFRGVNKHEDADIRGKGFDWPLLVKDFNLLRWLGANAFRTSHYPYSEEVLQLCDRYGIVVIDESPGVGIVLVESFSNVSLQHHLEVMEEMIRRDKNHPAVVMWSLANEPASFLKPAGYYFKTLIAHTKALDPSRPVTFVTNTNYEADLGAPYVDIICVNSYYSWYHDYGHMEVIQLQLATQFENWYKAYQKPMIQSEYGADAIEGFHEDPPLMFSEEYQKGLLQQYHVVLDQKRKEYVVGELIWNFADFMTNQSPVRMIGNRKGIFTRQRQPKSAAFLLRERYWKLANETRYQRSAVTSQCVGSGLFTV
Kind of assay: β-Glucuronidase (bovine liver) inhibition. Here is the method: as §1

Assay [6] concerns the target β-N-Acetylhexosaminidase (Jack bean). Kind of assay: β-N-Acetylhexosaminidase (Jack bean) inhibition. The settings on record: β-N-Acetylhexosaminidase (β-GlcNAcase), read-out: IC50. The protocol: as §1
Another assay has as its target T5, α-Glucosidase (Rice) (Oryza sativa subsp. japonica, UniProt Q653V7).
T5 construct: purchased Sigma-Aldrich Chemical Co
In words: α-Glucosidase (rice) inhibition. The protocol:
as §1

The target in the next assay is β-Mannosidase (Snail). In words: β-Mannosidase (snail) inhibition. Here is the method: as §1
The target in assay [7] is β-N-Acetylgalactosaminidase (HL60). In words: β-N-Acetylgalactosaminidase (HL60) inhibition. The protocol:
as §1

Another assay deals with α-Glucosidase (Yeast) (Saccharomyces cerevisiae, UniProt P53341). In words: α-Glucosidase (yeast) inhibition. Here is the method: as §1
Sequence of α-Glucosidase (Yeast) (P53341 whole entry): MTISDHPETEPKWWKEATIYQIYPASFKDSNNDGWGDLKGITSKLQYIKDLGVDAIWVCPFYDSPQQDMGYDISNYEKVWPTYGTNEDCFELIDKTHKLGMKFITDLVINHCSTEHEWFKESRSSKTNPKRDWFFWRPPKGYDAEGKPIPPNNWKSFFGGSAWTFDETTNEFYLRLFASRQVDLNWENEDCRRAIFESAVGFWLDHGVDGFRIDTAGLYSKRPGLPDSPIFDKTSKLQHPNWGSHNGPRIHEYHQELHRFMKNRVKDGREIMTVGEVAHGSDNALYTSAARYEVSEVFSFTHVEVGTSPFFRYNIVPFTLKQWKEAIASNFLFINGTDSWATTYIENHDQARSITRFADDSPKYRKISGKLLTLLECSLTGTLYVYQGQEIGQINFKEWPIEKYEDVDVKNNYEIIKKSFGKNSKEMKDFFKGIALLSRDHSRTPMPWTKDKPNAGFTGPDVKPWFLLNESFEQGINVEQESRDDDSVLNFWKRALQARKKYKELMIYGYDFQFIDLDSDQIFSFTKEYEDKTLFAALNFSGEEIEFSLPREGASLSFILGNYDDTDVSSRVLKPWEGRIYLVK
The target in assay [8] is β-Glucosidase (Bovine liver). Kind of assay: β-Glucosidase (bovine liver) inhibition. Here is the method:
as §1

Setting [9] is: 1000 μM, read-out: Inhibition % at 1000 μM.
[10] abbreviates: read-out: Inhibition % at 1000 μM.
The mark [11] stands for this setting: α-Glucosidase, Yeast, read-out: IC50.

As usually defined, the IC50 is the concentration at which inhibition is half-maximal.

T5 sequence (Q653V7 34-885): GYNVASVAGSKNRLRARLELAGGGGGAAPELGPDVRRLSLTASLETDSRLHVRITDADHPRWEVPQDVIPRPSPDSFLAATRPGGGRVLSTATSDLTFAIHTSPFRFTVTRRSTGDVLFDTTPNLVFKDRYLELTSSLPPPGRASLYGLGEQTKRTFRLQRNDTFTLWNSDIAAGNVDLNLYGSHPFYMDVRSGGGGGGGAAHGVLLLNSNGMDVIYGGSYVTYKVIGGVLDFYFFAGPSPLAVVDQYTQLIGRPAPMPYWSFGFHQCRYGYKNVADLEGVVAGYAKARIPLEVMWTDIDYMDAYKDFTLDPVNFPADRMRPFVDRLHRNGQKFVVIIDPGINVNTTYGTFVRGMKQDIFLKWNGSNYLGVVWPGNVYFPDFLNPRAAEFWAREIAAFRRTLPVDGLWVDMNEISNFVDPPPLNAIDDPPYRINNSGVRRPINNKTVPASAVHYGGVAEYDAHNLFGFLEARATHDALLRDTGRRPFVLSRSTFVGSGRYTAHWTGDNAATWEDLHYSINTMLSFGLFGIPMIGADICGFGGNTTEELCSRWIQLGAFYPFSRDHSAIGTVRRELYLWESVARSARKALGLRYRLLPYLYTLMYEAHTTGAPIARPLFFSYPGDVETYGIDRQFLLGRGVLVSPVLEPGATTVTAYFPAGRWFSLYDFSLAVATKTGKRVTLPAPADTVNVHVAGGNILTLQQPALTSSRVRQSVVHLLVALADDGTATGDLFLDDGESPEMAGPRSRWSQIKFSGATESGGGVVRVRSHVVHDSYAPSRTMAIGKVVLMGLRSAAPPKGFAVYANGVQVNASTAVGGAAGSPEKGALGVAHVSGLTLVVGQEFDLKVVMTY
T2 sequence (Q42656 16-378): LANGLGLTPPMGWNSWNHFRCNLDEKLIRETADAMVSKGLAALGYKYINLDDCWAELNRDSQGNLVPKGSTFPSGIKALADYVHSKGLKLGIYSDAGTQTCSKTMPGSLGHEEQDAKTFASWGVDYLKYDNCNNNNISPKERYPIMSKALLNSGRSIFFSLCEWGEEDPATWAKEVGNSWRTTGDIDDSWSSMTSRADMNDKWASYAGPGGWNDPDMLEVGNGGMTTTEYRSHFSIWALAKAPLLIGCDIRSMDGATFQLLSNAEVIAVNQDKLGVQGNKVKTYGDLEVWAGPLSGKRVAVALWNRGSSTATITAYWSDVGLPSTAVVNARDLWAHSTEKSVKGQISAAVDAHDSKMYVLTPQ

Take `CC(=O)NC[C@H]1N[C@@H](CO)[C@H](O)[C@@H]1O` [G-10, 1-N-acetylamino-2,5-imino-1,2,5-trideoxy-D-allitol hydrochloride]: the 50% inhibitory concentration (IC50) in assay [1] (read-out: IC50) is 299 µM; at Rat intestinal maltase, “NI (No Inhibition (less than 50% at 1000 μM))”; in assay [6] it was 26 µM; against β-Mannosidase (Snail), “NI (No Inhibition (less than 50% at 1000 μM))”; in assay [7], “NI (No Inhibition (less than 50% at 1000 μM))”; in [8] it was “NI (No Inhibition (less than 50% at 1000 μM))”. The inhibition at 1000 µM in [2] (setting [9]) is 11.5%; in assay [2] (read-out: IC50), below 50%; in [3] (setting [9]) it was 0%; in assay [3] (read-out: IC50), below 50%; in [4] (setting [9]), 2.3%; in assay [4] (read-out: IC50), below 50%. Besides, the inhibition at 1000 µM in [5] (setting [9]) is 0%; in assay [5] (read-out: IC50) it was below 50%; on α-Glucosidase (Rice) (setting [9]) it was 0%; at α-Glucosidase (Rice) (read-out: IC50), below 50%; at α-Glucosidase (Yeast) (setting [10]) it was 0%; on α-Glucosidase (Yeast) (setting [11]), below 50%. Also, the “Inhibition % at 1000 μM” value in the assay on Rat intestinal maltase was determined as 16.0%; in the assay on β-Mannosidase (Snail), 0%; in assay [7], 15.9%; in [8], 0%.

In the case of `CC(=O)NC[C@@H]1N[C@@H](CO)[C@H](O)[C@H]1O` [A-10, 1-N-acetylamino-2,5-imino-1,2,5-trideoxy-L-mannitol hydrochloride], the IC50 in assay [1] (read-out: IC50) is 943 µM; on Rat intestinal maltase (read-out: IC50), 92 µM; in [6] it was 202 µM; at α-Glucosidase (Rice), 568 µM; on β-Mannosidase (Snail), “NI (No Inhibition (less than 50% at 1000 μM))”; in [7], “NI (No Inhibition (less than 50% at 1000 μM))”. Further, in assay [8], the IC50 result was “NI (No Inhibition (less than 50% at 1000 μM))”. Also, the inhibition at 1000 µM was 0% in assay [2] (setting [9]); below 50% in assay [2] (read-out: IC50); 0% in [3] (setting [9]); below 50% in [3] (read-out: IC50); 0% in [4] (setting [9]); below 50% in [4] (read-out: IC50). Also, the inhibition at 1000 µM is 4.6% in assay [5] (setting [9]), below 50% in assay [5] (read-out: IC50), 0.5% at α-Glucosidase (Yeast) (setting [10]) and below 50% on α-Glucosidase (Yeast) (setting [11]). Also, the entries for the “Inhibition % at 1000 μM” value (with β-Mannosidase (Snail); in assay [7]; in assay [8]) were 0%, 13.0% and 2.0%, respectively.

For `CC(=O)NC[C@@H]1N[C@@H](CO)[C@@H](O)[C@@H]1O` [E-10b, 1-N-acetylamino-2,5-imino-1,2,5-trideoxy-L-iditol hydrochloride], the half-maximal inhibitory concentration (IC50) result in [1] is “NI (No Inhibition (less than 50% at 1000 μM))”; against Rat intestinal maltase it was “NI (No Inhibition (less than 50% at 1000 μM))”; in assay [6] it was 115 µM; against β-Mannosidase (Snail), “NI (No Inhibition (less than 50% at 1000 μM))”; in [7], “NI (No Inhibition (less than 50% at 1000 μM))”; in assay [8] it was “NI (No Inhibition (less than 50% at 1000 μM))”. Further, the “Inhibition % at 1000 μM” value in [1] (β-N-Acetylhexosaminidase, 1000 μM) was determined as 38.4%; with Rat intestinal maltase, 0%; in the assay with β-Mannosidase (Snail) it was 0%; in [7] it was 10.1%; in assay [8], 0%. Also, the inhibition at 1000 µM in [2] (setting [9]) was 20.5%; in [2] (read-out: IC50) it was below 50%; in assay [3] (setting [9]), 0%; in assay [3] (read-out: IC50), below 50%; in assay [4] (setting [9]) it was 0.5%; in assay [4] (read-out: IC50), below 50%. Further, the inhibition at 1000 µM in assay [5] (setting [9]) is 4.3%; in assay [5] (read-out: IC50) it was below 50%; on α-Glucosidase (Rice) (setting [9]), 0%; at α-Glucosidase (Rice) (read-out: IC50) it was below 50%; on α-Glucosidase (Yeast) (setting [10]), 0%; at α-Glucosidase (Yeast) (setting [11]), below 50%.

`CC(=O)NC[C@H]1N[C@H](CO)[C@@H](O)[C@@H]1O` [4·HCl, 1-N-acetylamino-2,5-imino-1,2,5-trideoxy-D-mannitol hydrochloride]: the IC50 was 4.7 µM in [1] (read-out: IC50); 211 µM at Rat intestinal maltase (read-out: IC50); 0.21 µM in [6]; 1000 µM at α-Glucosidase (Rice); 296 µM at β-Mannosidase (Snail) (read-out: IC50); 9.5 µM in [7] (read-out: IC50). Besides, the IC50 against α-Glucosidase (Yeast) (α-Glucosidase, Yeast) was 450 µM; in assay [8] it was “NI (No Inhibition (less than 50% at 1000 μM))”. The inhibition at 1000 µM in assay [2] (setting [9]) was 1.5%; in assay [2] (read-out: IC50) it was below 50%; in assay [3] (setting [9]), 1.1%; in [3] (read-out: IC50), below 50%; in assay [4] (setting [9]) it was 3.3%; in assay [4] (read-out: IC50), below 50%. Besides, the inhibition at 1000 µM in [5] (setting [9]) was 1.7%; in assay [5] (read-out: IC50), below 50%. Further, the “Inhibition % at 1000 μM” value in [8] is on record as 33.8%.

As for `CC(=O)NC[C@H]1N[C@H](CO)[C@H](O)[C@@H]1O` [D-10, 1-N-acetylamino-2,5-imino-1,2,5-trideoxy-D-altritol hydrochloride], the inhibition at 1000 µM was 1.7% in assay [2] (setting [9]); below 50% in assay [2] (read-out: IC50); 1.3% in assay [5] (setting [9]); below 50% in [5] (read-out: IC50); 26.1% on α-Glucosidase (Rice) (setting [9]); below 50% at α-Glucosidase (Rice) (read-out: IC50). Besides, the inhibition at 1000 µM on α-Glucosidase (Yeast) (setting [10]) was 0%; at α-Glucosidase (Yeast) (setting [11]) it was below 50%. The IC50 in assay [3] is 380 µM; at Rat intestinal maltase it was “NI (9.24%) (No Inhibition (less than 50% at 1000 μM))”; in assay [4] it was 65.3 µM; in assay [6], 0.12 µM; on β-Mannosidase (Snail), “NI (No Inhibition (less than 50% at 1000 μM))”; in [7] (read-out: IC50) it was 8.8 µM. Further, the IC50 result in assay [8] is listed as “NI (2.4%) (No Inhibition (less than 50% at 1000 μM))”. Moreover, in the assay with β-Mannosidase (Snail), the “Inhibition % at 1000 μM” value is reported as 0%.
